Results: PMC7565988, “Insight into the Anticancer Activity of Copper(II) 5-Methylenetrimethylammonium-Thiosemicarbazonates and Their Interaction with Organic Cation Transporters” (Biomolecules, 2020)
Where two headings read alike, the source gives them in different places.

Assays:
[1] = system: SH-SY5Y neuroblastoma cells; assay: MTT cytotoxicity (24 h) / antiproliferation (72 h) assay; type: cell-based, human; details: SH-SY5Y; for IC50: Homo sapiens, MTT; for enhancement of cytotoxicity by chelation to copper(II), factor: proligand vs its copper(II) complex
Description: SH-SY5Y (ATCC® CRL-2266™) neuroblastoma cell line was purchased from LGC Promochem, Teddington, UK. The cell line was cultured in Eagle’s Minimal Essential Medium (EMEM, containing 4.5 g/L glucose) supplemented with a non-essential amino acid mixture, a selection of vitamins and 10% heat-inactivated foetal bovine serum. The cell line was incubated at 37 °C, in a 5% CO2, 95% air atmosphere.
In the study non-cancerous human embryonic lung fibroblast MRC-5, human colonic adenocarcinoma cell line (doxorubicin-sensitive Colo 205, multidrug resistant Colo 320) and neuroblastoma cell line SH-SY5Y were used to determine the effect of compounds on cell growth. The effects of increasing concentrations of compounds on cell growth were tested in 96-well flat-bottomed microtiter plates. The compounds were diluted in a volume of 100 μL of medium.
The adherent human embryonal lung fibroblast and SH-SY5Y neuroblastoma cells were cultured in 96-well flat-bottomed microtiter plates, using EMEM supplemented with 10% heat-inactivated foetal bovine serum. The density of the cells was adjusted to 2 × 10^4 cells in 100 μL per well, the cells were seeded for 24 h at 37 °C, 5% CO2, then the medium was removed from the plates containing the cells, and the dilutions of compounds previously made in a separate plate were added to the cells in 200 μL.
The culture plates were incubated at 37 °C for 24 h; at the end of the incubation period, 20 μL of MTT (thiazolyl blue tetrazolium bromide, Sigma) solution (from a stock solution of 5 mg/mL) were added to each well. After incubation at 37 °C for 4 h, 100 μL of sodium dodecyl sulfate (SDS) (Sigma) solution (10% in 0.01 M HCI) were added to each well and the plates were further incubated at 37 °C overnight. Cell growth was determined by measuring the optical density (OD) at 540/630 nm with Multiscan EX ELISA reader (Thermo Labsystems, Cheshire, WA, USA). […] Curves were fitted by GraphPad Prism software using the sigmoidal dose-response model (comparing variable and fixed slopes).
The method is similar to the one described in the assay for cytotoxic effect. […] The culture plates were incubated at 37 °C for 72 h and after the incubation time, the plates were stained with MTT according to the previous experimental protocol described for the cytotoxicity assay.

[2] = 1H NMR titration, pKa of E/Z isomers; type: physicochemical; details: 10% D2O/H2O, cL = 200 μM, I = 0.1 M (KCl), 25 °C
Description: ^1H NMR spectroscopic studies were carried out on a Bruker Avance III HD instrument (Bruker BioSpin GmbH, Rheinstetten, Germany). All spectra were recorded with the WATERGATE water suppression pulse scheme using DSS internal standard.

[3] = EPR spin trapping (DMPO/H2O2), ROS generation in cell-free media; details: DMPO/H2O2 aqueous system
Description: (§1) The generation of paramagnetic intermediates was monitored by cw-EPR spectroscopy using the EMXplus spectrometer and spin trapping technique. Deionised water was used for preparation of aqueous solutions. The spin trapping agent 5,5-dimethyl-1-pyrroline N-oxide (DMPO; Sigma-Aldrich) was distilled prior to the application. The EPR spectra were measured with following experimental parameters: X-band, room temperature, microwave frequency, 9.448 GHz; 100 kHz field modulation amplitude, 2 G; time constant, 10 ms; scan time, 21 s (three scans). Glutathione from Sigma-Aldrich; 6-hydroxy-2,5,7,8-tetramethylchroman-2-carboxylic acid (Trolox, 97%, Sigma-Aldrich); K2S2O8 (p.a. purity, Merck); 2,2′-azinobis [3-ethylbenzothiazoline-6-sulfonic acid] (ABTS; purum, >99%; Fluka) were used as received. Deionised high-purity grade H2O, with conductivity of […], was produced by using the TKA H2O purification system (Water Purification Systems GmbH, D-Niederelbert). For the ABTS decolourisation assay, the radical cations were pre-formed by the reaction of an aqueous solution of K2S2O8 (3.30 mg) in H2O (5 mL) with ABTS (17.2 mg). The resulting bluish-green radical cation (ABTS^•+) solution was stored overnight in the dark. […] The optical spectra were recorded from 1 to 40 min in 1 cm quartz UV cuvette after mixing the sample water/DMSO solution with ABTS^•+ in mixed solvent water/DMSO (20% (v/v)).

[4] = ABTS decolourisation assay, Trolox equivalent antioxidant capacity; details: water/DMSO (20% v/v), absorbance at 735 nm
Description: as §1

| Compound | IC50 ([1]; 24 h exposure) | IC50 ([1]; 72 h exposure) | enhancement of cytotoxicity by chelation to copper(II), factor [1] | pKa ([2]; read-out: pKa of major E isomer) | pKa ([2]; read-out: pKa of minor Z isomer) | radical formation [3] | Trolox equivalent antioxidant capacity (TEAC) [4] |
| --- | --- | --- | --- | --- | --- | --- | --- |
| CNC(=S)N/N=C/c1cc(C[N+](C)(C)C)ccc1O [[H2L^Me]Cl] | > 100 µM | > 100 µM | ca. 7 |  |  |  |  |
| C[N+](C)(C)Cc1ccc(O)c(/C=N/NC(=S)Nc2ccccc2)c1 [[H2L^Ph]Cl] | > 100 µM | 31.5 ± 2.66 µM |  |  |  |  |  |
| CCNC(=S)N/N=C/c1cc(C[N+](C)(C)C)ccc1O [[H2L^Et]Cl] | 88.1 ± 9.19 µM | 49.9 ± 3.97 µM |  |  |  |  |  |
| C[N+](C)(C)Cc1ccc(O)c(/C=N/NC(N)=S)c1 [[H2L^H]Cl] | > 100 µM | > 100 µM | ca. 2 | 7.51 | 6.95 | no radical formation | 0.74 |
